PubChem BioAssay AID1963853 (Molecular Pharmacology Branch, DTP, NCI, 2024)

System: 266295-075-R-J1-PDC spheroid viability
Test: Anticancer human tumor 266295-075-R-J1-PDC patient-derived head and neck squamous carcinoma cell line growth inhibition [POLQ]
Details: spheroids with HUVEC and MSC; for IC50: curve of first compound; for viability, T/C: stronger effect = lower value; active = viability on the fitted dose curve at most 10% of control; inactive = the rest
Summary of the method: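 Growth inhibition in 3D: complex spheroids (tumor PDC, HUVEC, MSC) treated with POLQ inhibitor combinations; where Cmax unknown, highest tested concentration 10 microM, except SN-38 at 1 microM.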

[1] = second compound 0.0316 µM, first compound 0.0316 µM
[2] = second compound 0.0316 µM, first compound 0.1 µM
[3] = second compound 0.0316 µM, first compound 0.316 µM
[4] = second compound 0.0316 µM, first compound 1 µM
[5] = second compound 0.0316 µM, first compound 3.16 µM
[6] = second compound 0.0316 µM, first compound 10 µM
[7] = second compound 0.1 µM, first compound 0.0316 µM
[8] = second compound 0.1 µM, first compound 0.1 µM
[9] = second compound 0.1 µM, first compound 0.316 µM
[10] = second compound 0.1 µM, first compound 1 µM
[11] = second compound 0.1 µM, first compound 3.16 µM
[12] = second compound 0.1 µM, first compound 10 µM
[13] = second compound 0.316 µM, first compound 0.0316 µM
[14] = second compound 0.316 µM, first compound 0.1 µM
[15] = second compound 0.316 µM, first compound 0.316 µM
[16] = second compound 0.316 µM, first compound 1 µM
[17] = second compound 0.316 µM, first compound 3.16 µM
[18] = second compound 0.316 µM, first compound 10 µM
[19] = second compound 1 µM, first compound 0.0316 µM
[20] = second compound 1 µM, first compound 0.1 µM
[21] = second compound 1 µM, first compound 0.316 µM
[22] = second compound 1 µM, first compound 1 µM
[23] = second compound 1 µM, first compound 3.16 µM
[24] = second compound 1 µM, first compound 10 µM
[25] = second compound 3.16 µM, first compound 0.0316 µM
[26] = second compound 3.16 µM, first compound 0.1 µM
[27] = second compound 3.16 µM, first compound 0.316 µM
[28] = second compound 3.16 µM, first compound 1 µM
[29] = second compound 3.16 µM, first compound 3.16 µM
[30] = second compound 3.16 µM, first compound 10 µM
[31] = second compound 10 µM, first compound 0.0316 µM
[32] = second compound 10 µM, first compound 0.1 µM
[33] = second compound 10 µM, first compound 0.316 µM
[34] = second compound 10 µM, first compound 1 µM
[35] = second compound 10 µM, first compound 3.16 µM
[36] = second compound 10 µM, first compound 10 µM
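Note: spheroids exposed to compounds for seven days before readout.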

CCc1cc2c(N3CCc4c(cc(Cn5ccnc5)cc4-c4cn(C)nc4C(F)(F)F)C3=O)cc(C)nc2c(OC)n1 + Cc1cccc(N(C)C(=O)C2C(O)CCN2c2nc(C)cc(C(F)(F)F)c2C#N)c1
inactive: viability, T/C [1] 72.8% | viability, T/C [2] 89% | viability, T/C [3] 81.6% | viability, T/C [4] 111% | viability, T/C [5] 130% | viability, T/C [6] 120% | viability, T/C [7] 102% | viability, T/C [8] 90.4% | viability, T/C [9] 101% | viability, T/C [10] 110% | viability, T/C [11] 89.3% | viability, T/C [12] 114% | viability, T/C [13] 97.7% | viability, T/C [14] 105% | viability, T/C [15] 102% | viability, T/C [16] 122% | viability, T/C [17] 131% | viability, T/C [18] 123% | viability, T/C [19] 87.1% | viability, T/C [20] 88.4% | viability, T/C [21] 102% | viability, T/C [22] 98.5% | viability, T/C [23] 135% | viability, T/C [24] 121% | viability, T/C [25] 83.7% | viability, T/C [26] 102% | viability, T/C [27] 117% | viability, T/C [28] 109% | viability, T/C [29] 138% | viability, T/C [30] 137% | viability, T/C [31] 101% | viability, T/C [32] 93.2% | viability, T/C [33] 111% | viability, T/C [34] 127% | viability, T/C [35] 122% | viability, T/C [36] 145%
> 10 µM: IC50 (second compound 0.0316 µM) | IC50 (second compound 0.1 µM) | IC50 (second compound 0.316 µM) | IC50 (second compound 1 µM) | IC50 (second compound 3.16 µM) | IC50 (second compound 10 µM)

O=C(Nc1ccc(O)c(NS(=O)(=O)c2ccc(F)cc2)c1)c1ccc(-c2ccccc2)cc1 + Cc1cccc(N(C)C(=O)C2C(O)CCN2c2nc(C)cc(C(F)(F)F)c2C#N)c1
> 10 µM: IC50 (second compound 0.0316 µM) | IC50 (second compound 0.1 µM) | IC50 (second compound 0.316 µM) | IC50 (second compound 1 µM) | IC50 (second compound 3.16 µM) | IC50 (second compound 10 µM)
inactive: viability, T/C [1] 96.1% | viability, T/C [2] 104% | viability, T/C [3] 125% | viability, T/C [4] 139% | viability, T/C [5] 144% | viability, T/C [6] 103% | viability, T/C [7] 118% | viability, T/C [8] 104% | viability, T/C [9] 124% | viability, T/C [10] 110% | viability, T/C [11] 123% | viability, T/C [12] 97.7% | viability, T/C [13] 107% | viability, T/C [14] 87.6% | viability, T/C [15] 76.6% | viability, T/C [16] 95.2% | viability, T/C [17] 146% | viability, T/C [18] 88.3% | viability, T/C [19] 102% | viability, T/C [20] 97% | viability, T/C [21] 103% | viability, T/C [22] 129% | viability, T/C [23] 114% | viability, T/C [24] 85.5% | viability, T/C [25] 136% | viability, T/C [26] 94.5% | viability, T/C [27] 110% | viability, T/C [28] 136% | viability, T/C [29] 127% | viability, T/C [30] 103% | viability, T/C [31] 108% | viability, T/C [32] 113% | viability, T/C [33] 113% | viability, T/C [34] 108% | viability, T/C [35] 142% | viability, T/C [36] 97.2%

CCc1c2c(nc3ccc(O)cc13)-c1cc3c(c(=O)n1C2)COC(=O)[C@]3(O)CC + Cc1cccc(N(C)C(=O)C2C(O)CCN2c2nc(C)cc(C(F)(F)F)c2C#N)c1
inactive: viability, T/C (second compound 0.0316 µM, first compound 0.00316 µM) 90.2% | viability, T/C (second compound 0.0316 µM, first compound 0.01 µM) 81.4% | viability, T/C [1] 80.4% | viability, T/C [2] 85.8% | viability, T/C [3] 113% | viability, T/C [4] 76.7% | viability, T/C (second compound 0.1 µM, first compound 0.00316 µM) 90.3% | viability, T/C (second compound 0.1 µM, first compound 0.01 µM) 78.5% | viability, T/C [7] 90.4% | viability, T/C [8] 81.9% | viability, T/C [9] 110% | viability, T/C [10] 72.9% | viability, T/C (second compound 0.316 µM, first compound 0.00316 µM) 85.8% | viability, T/C (second compound 0.316 µM, first compound 0.01 µM) 84.1% | viability, T/C [13] 87.2% | viability, T/C [14] 87% | viability, T/C [15] 92.5% | viability, T/C [16] 75.1% | viability, T/C (second compound 1 µM, first compound 0.00316 µM) 91.5% | viability, T/C (second compound 1 µM, first compound 0.01 µM) 86.7% | viability, T/C [19] 77% | viability, T/C [20] 84.3% | viability, T/C [21] 92.7% | viability, T/C [22] 75.5% | viability, T/C (second compound 3.16 µM, first compound 0.00316 µM) 78.5% | viability, T/C (second compound 3.16 µM, first compound 0.01 µM) 74.1% | viability, T/C [25] 79.9% | viability, T/C [26] 89% | viability, T/C [27] 107% | viability, T/C [28] 75.2% | viability, T/C (second compound 10 µM, first compound 0.00316 µM) 92.8% | viability, T/C (second compound 10 µM, first compound 0.01 µM) 92% | viability, T/C [31] 82.9% | viability, T/C [32] 85.7% | viability, T/C [33] 87.8% | viability, T/C [34] 55.6%
> 1 µM: IC50 (second compound 0.0316 µM) | IC50 (second compound 0.1 µM) | IC50 (second compound 0.316 µM) | IC50 (second compound 1 µM) | IC50 (second compound 3.16 µM) | IC50 (second compound 10 µM)

CCc1cc2c(N3CCc4c(cc(Cn5ccnc5)cc4-c4cn(C)nc4C(F)(F)F)C3=O)ccnc2c(OC)n1 + Nc1ccc(C#CCN(C(=O)Cc2ncc(C(F)(F)F)cc2C(F)(F)F)c2ccc(F)cc2)nn1
inactive: viability, T/C [1] 92.7% | viability, T/C [2] 102% | viability, T/C [3] 105% | viability, T/C [4] 141% | viability, T/C [5] 183% | viability, T/C [6] 159% | viability, T/C [7] 100% | viability, T/C [8] 110% | viability, T/C [9] 91.7% | viability, T/C [10] 135% | viability, T/C [11] 127% | viability, T/C [12] 132% | viability, T/C [13] 116% | viability, T/C [14] 120% | viability, T/C [15] 110% | viability, T/C [16] 138% | viability, T/C [17] 148% | viability, T/C [18] 127% | viability, T/C [19] 109% | viability, T/C [20] 117% | viability, T/C [21] 97.5% | viability, T/C [22] 114% | viability, T/C [23] 134% | viability, T/C [24] 115% | viability, T/C [25] 99.8% | viability, T/C [26] 103% | viability, T/C [27] 122% | viability, T/C [28] 102% | viability, T/C [29] 110% | viability, T/C [30] 130% | viability, T/C [31] 103% | viability, T/C [32] 97.7% | viability, T/C [33] 118% | viability, T/C [34] 115% | viability, T/C [35] 133% | viability, T/C [36] 121%
> 10 µM: IC50 (second compound 0.0316 µM) | IC50 (second compound 0.1 µM) | IC50 (second compound 0.316 µM) | IC50 (second compound 1 µM) | IC50 (second compound 3.16 µM) | IC50 (second compound 10 µM)
